The results in this text go back to patent publication EP1458697B1, “BIPHENYLMETHYL-THIAZOLIDINEDIONES AND ANALOGUES AND THEIR USE AS PPAR-GAMMA ACTIVATORS” (Galderma Research & Development, S.N.C., priority 2001, dated 2003).

Bounds are passed on as bounds.

The target in experiment [1] is T1, récepteur chimère Gal-PPARα (Homo sapiens, UniProt Q07869).
T1 sequence (Q07869 167-468): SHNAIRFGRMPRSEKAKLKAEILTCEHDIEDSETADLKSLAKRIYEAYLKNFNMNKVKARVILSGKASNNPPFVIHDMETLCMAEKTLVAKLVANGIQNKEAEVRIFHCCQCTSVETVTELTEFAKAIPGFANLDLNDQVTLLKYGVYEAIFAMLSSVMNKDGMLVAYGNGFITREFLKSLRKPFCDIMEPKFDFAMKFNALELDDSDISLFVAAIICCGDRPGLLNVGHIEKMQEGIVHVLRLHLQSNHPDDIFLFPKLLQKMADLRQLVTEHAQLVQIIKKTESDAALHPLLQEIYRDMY
In words: Transactivation test, same protocol with chimeric receptor Gal-PPARα. The conditions noted are these: Hela cells; for activation at 1 µM: 24 h, compound at 1 microM, percent of activation relative to reference agonist (Wy 14643 = 100%), read-out: % d'activation (à 1 microM) PPARα; for AC50: concentration giving 50% activation relative to reference agonist, read-out: AC50 (en nM) PPARα. It counts as cell-based. From the text:
De préférence, l'activateur des récepteurs de type PPARγ est spécifique, c'est à dire qu'il présente un rapport du pourcentage d'activation des récepteurs PPARγ, au pourcentage d'activation des récepteurs PPARα (calculé par rapport à un composé de référence, le Wy 14643, activant les PPARα de 100%) supérieur ou égal à 3. De préférence, ce rapport est supérieur ou égal à 5 et plus avantageusement supérieur ou égal à 10.
(§1) La capacité des molécules à activer et/ou inhiber les récepteurs PPARγ est évaluée à partir de cellules Hela transfectées de manière stable avec le récepteur chimère Gal-PPARγ (LBD).
(§2) Des plaques 96 puits sont ensemencées à raison de 10 000 cellules /100 µl / puit dans du milieu DMEM 10% SDL puis placées 24 heures à 37°C, 7% CO2.
(§3) Pour déterminer l'activité agoniste PPARγ, les cellules sont ensuite traitées par ajout de 5 µl puit des molécules à tester à la concentration finale de 1 µM. Des cellules sont également traitées en parallèle avec un agoniste de référence, l'acide (-)-3-{4-[2-(Benzooxazol-2-yl-methyl-amino)-ethoxy]-phenyl}-2-ethoxy-propionique, 1 µM.
(§4) Après une nouvelle incubation de 24 heures à 37°C, 7% CO2, un dosage de la luciférase est effectué à l'aide du kit « Steady-Glo Luciferase Assay System » de Promega. Le comptage de la luminescence se fait sur un lecteur de microplaque Microbéta Trilux (Wallac).
(§5) L'activité agoniste du produit testé sera exprimée en pourcentage d'activation par rapport au témoin agoniste l'agoniste de référence à 1 µM.
En appliquant ce même protocole avec le récepteur chimère Gal-PPARα, on peut mesurer l'activité agoniste des composés vis à vis des récepteurs PPAR alpha et ainsi la comparer avec celui du récepteur PPARγ.
(§6) L'AC50, exprimée en nM, est déterminée comme la concentration permettant d'obtenir 50% d'activation du signal basal par rapport à l'agoniste de référence.

Experiment [2] deals with T2, récepteur chimère Gal-PPARγ (LBD) (Homo sapiens, UniProt P37231).
T2 construct: le récepteur chimère Gal-PPARγ (LBD); Gal (fusion partner); expressed in transfected cells; host or cells: HeLa cells, stably transfected
T2 sequence (P37231 238-503 limits assumed): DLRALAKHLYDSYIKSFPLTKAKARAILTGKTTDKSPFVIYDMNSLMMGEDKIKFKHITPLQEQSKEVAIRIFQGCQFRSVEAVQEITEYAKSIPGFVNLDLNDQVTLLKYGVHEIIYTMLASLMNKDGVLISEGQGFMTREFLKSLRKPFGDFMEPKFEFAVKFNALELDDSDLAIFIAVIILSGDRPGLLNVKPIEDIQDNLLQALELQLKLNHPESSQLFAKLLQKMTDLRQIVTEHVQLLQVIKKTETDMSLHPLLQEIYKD
As to the kind of experiment: Transactivation test, Hela cells stably transfected with chimeric receptor Gal-PPARγ (LBD), luciferase readout. It counts as cell-based. Particulars: M-HeLa, 24 h, compound at 1 microM, percent of activation relative to reference agonist at 1 µM, read-out: % d'activation (à 1 microM) PPARγ. On the procedure:
L'activité agoniste vis à vis des récepteurs PPARγ des composés selon l'invention peut être évaluée par des tests de transactivation.
as §1, §2, §3, §4, §5, §6

Regarding `CN(Cc1cccc(-c2ccc(CC3SC(=O)NC3=O)cc2)c1)C(=O)c1ccc2ccccc2c1` (centres unmarked) [Composé de l'exemple 6, N-[4'-(2,4-dioxo-thiazolidin-5-ylmethyl)-biphenyl-3-ylmethyl]-N-methyl-naphthalene-2-carboxamide], in experiment [1], the activation at 1 µM was found to be 7.9% and the AC50 is over 50000 nM.
For the compound `COCCOCOc1ccc2cc(C(=O)N(C)Cc3cccc(-c4ccc(CC5SC(=O)NC5=O)cc4)c3)ccc2c1` (centres unmarked) [Composé de l'exemple 16, 6-(2-Methoxy-ethoxymethoxy)-N-[4'-(2,4-dioxo-thiazolidin-5-ylmethyl)-biphenyl-3-ylmethyl]-N-methyl-naphthalene-2-carboxamide], the activation at 1 µM in experiment [2] worked out at 93.3%. Also, in experiment [1], the activation at 1 µM turned out to be 22.9% and the half-maximal activity concentration (AC50) is over 50000 nM.
As for `CN(Cc1cccc(-c2ccc(CC3SC(=O)NC3=O)cc2)c1)C(=O)c1cc2ccccc2s1` (centres unmarked) [Composé de l'exemple 11, N-[4'-(2,4-dioxo-thiazolidin-5-ylmethyl)-biphenyl-3-ylmethyl]-N-methyl-benzo[b]thiophene-2-carboxamide], the activation at 1 µM amounted to 90.1% in experiment [2] and 13.2% in experiment [1]. Moreover, the AC50 in experiment [1] is over 50000 nM.
`CN(C)c1ccc(NC(=O)N(C)c2cccc(-c3ccc(CC4SC(=O)NC4=O)cc3)c2)cc1` (centres unmarked) [Composé de l'exemple 22, 3-(4-Dimethylamino-phenyl)-1-[4'-(2,4-dioxo-thiazolidin-5-ylmethyl)-biphenyl-3-yl]-1-methyl-urée]: the activation at 1 µM was 108% in experiment [2] and -3.9% in experiment [1].
As for `CN(Cc1cccc(-c2ccc(CC3SC(=O)NC3=O)cc2)c1)C(=O)c1cccc2ccccc12` (centres unmarked) [Composé de l'exemple 5, N-[4'-(2,4-dioxo-thiazolidin-5-ylmethyl)-biphenyl-3-ylmethyl]-N-methyl-naphthalene-1-carboxamide], in experiment [1], the activation at 1 µM is 26.6% and the half-maximal activity concentration (AC50) is over 50000 nM.
As for `CSc1ccc(C(=O)N(C)Cc2cccc(-c3ccc(CC4SC(=O)NC4=O)cc3)c2)cc1` (centres unmarked) [Composé de l'exemple 18, N-[4'-(2,4-Dioxo-thiazolidin-5-ylmethyl)-biphenyl-3-ylmethyl]-N-methyl-4-methylsulfanyl-benzamide], in experiment [2], the activation at 1 µM stood at 90.7%. Besides, in experiment [1], the activation at 1 µM was 37.3% and the AC50 was over 50000 nM.
In the case of `COC(=O)CCCCCCCCC(=O)N(C)Cc1cccc(-c2ccc(CC3SC(=O)NC3=O)cc2)c1` (centres unmarked) [Composé de l'exemple 2, 9-{[4'-(2,4-Dioxo-thiazolidin-5-ylmethyl)-biphenyl-3-ylmethyl]-methyl-carbamoyl}-nonanoatede méthyle], the activation at 1 µM in experiment [1] was 13.7%.
`CN(Cc1cccc(-c2ccc(CC3SC(=O)NC3=O)cc2)c1)C(=O)c1ccc(N(C)C)c2ccccc12` (centres unmarked) [Composé de l'exemple 13, 4-Dimethylamino-N-[4'-(2,4-dioxo-thiazolidin-5-ylmethyl)-biphenyl-3-ylmethyl]-N-methyl-naphthalene-1-carboxamide]: the activation at 1 µM in experiment [2] was found to be 112%. In experiment [1], the activation at 1 µM came out at 13.4% and the AC50 is over 50000 nM.
On to `CN(Cc1cccc(-c2ccc(CC3SC(=O)NC3=O)cc2)c1)C(=O)c1ccc(C(=O)c2ccccc2)cc1` (centres unmarked) [Composé de l'exemple 15, N-[4'-(2,4-Dioxo-thiazolidin-5-ylmethyl)-biphenyl-3-ylmethyl]-N-methyl-4-(1-phenyl-methanoyl)-benzamide], for which the activation at 1 µM in experiment [2] was 102%. In experiment [1], the activation at 1 µM was found to be 28.8% and the AC50 is over 50000 nM.
The matching figures for `CN(Cc1cccc(-c2ccc(CC3SC(=O)NC3=O)cc2)c1)C(=O)c1ccc(-c2ccccc2)cc1` (centres unmarked) [Composé de l'exemple 10, N-[4'-(2,4-dioxo-thiazolidin-5-ylmethyl)-biphenyl-3-ylmethyl]-N-methyl-biphenyl-4-carboxamide]: 183%, 13.8% and over 50000 nM.
`COC(=O)c1ccc(C(=O)N(C)Cc2cccc(-c3ccc(CC4SC(=O)NC4=O)cc3)c2)cc1` (centres unmarked) [Composé de l'exemple 3, N-[4'-(2,4-Dioxo-thiazolidin-5-ylmethyl)-biphenyl-3-ylmethyl]-N-methyl-terephthalamatede méthyle]: in experiment [1], the activation at 1 µM was determined as 22.3% and the AC50 was over 50000 nM.
For `CN(Cc1cccc(-c2ccc(CC3SC(=O)NC3=O)cc2)c1)C(=O)CCC1CCCC1` (centres unmarked) [Composé de l'exemple 4, 3-Cyclopentyl-N-[4'-(2,4-dioxo-thiazolidin-5-ylmethyl)-biphenyl-3-ylmethyl]-N-methyl-propionamide], in that order: 39.8% and over 50000 nM.
Take `CCO[C@@H](Cc1ccc(-c2cccc(CN(C)C(=O)CCCCC(=O)c3ccccc3)c2)cc1)C(=O)O` [Composé de l'exemple 20, Acide (S)-2-Ethoxy-3-(3'-{[methyl-(6-oxo-6-phenyl-hexanoyl)-amino]-methyl}-biphenyl-4-yl)-propionique]: the activation at 1 µM in experiment [2] turned out to be 114%. Further, in experiment [1], the activation at 1 µM was 41.9% and the AC50 is over 50000 nM.
For `CN(Cc1cccc(-c2ccc(CC3SC(=O)NC3=O)cc2)c1)C(=O)CCCCC(=O)c1ccccc1` (centres unmarked) [Composé de l'exemple 12, N-[4'-(2,4-dioxo-thiazolidin-5-ylmethyl)-biphenyl-3-ylmethyl]-N-methyl-6-oxo-6-phenyl-hexanamide], in that order: 168%, 12.3% and over 50000 nM.
For `CN(C(=O)Nc1ccc2ccccc2c1)c1cccc(-c2ccc(CC3SC(=O)NC3=O)cc2)c1` (centres unmarked) [Composé de l'exemple 21, 1-[4'-(2,4-Dioxo-thiazolidin-5-ylmethyl)-biphenyl-3-yl]-1-methyl-3-naphthalen-2-yl-urée], the activation at 1 µM was 104% in experiment [2] and -4.2% in experiment [1].
The matching figures for `CN(Cc1cccc(-c2ccc(CC3SC(=O)NC3=O)cc2)c1)C(=O)COc1ccccc1` (centres unmarked) [Composé de l'exemple 7, N-[4'-(2,4-Dioxo-thiazolidin-5-ylmethyl)-biphenyl-3-ylmethyl]-N-methyl-2-phenoxy-acetamide]: 97.2% and 37.8%.
The matching figures for `CN(Cc1cccc(-c2ccc(CC3SC(=O)NC3=O)cc2)c1)C(=O)C12CC3CC(CC(C3)C1)C2` (centres unmarked) [Composé de l'exemple 9, N-[4'-(2,4-dioxo-thiazolidin-5-ylmethyl)-biphenyl-3-ylmethyl]-N-methyl-adamantane-1-carboxamide]: 106% and 4.3%.
As for `CCO[C@@H](Cc1ccc(-c2cccc(CN(C)C(=O)c3ccc(-c4ccccc4)cc3)c2)cc1)C(=O)O` [Composé de l'exemple 19, Acide (S)-3-(3'-{[(1-Biphenyl-4-yl-methanoyl)-methyl-amino]-methyl}-biphenyl-4-yl)-2-ethoxy-propionique], the activation at 1 µM in experiment [2] turned out to be 102%. Further, in experiment [1], the activation at 1 µM was determined as 100% and the AC50 is over 50000 nM.
As for `CN(Cc1cccc(-c2ccc(CC3SC(=O)NC3=O)cc2)c1)C(=O)c1ccc2cc(O)ccc2c1` (centres unmarked) [Composé de l'exemple 17, 6-Hydroxy-N-[4'-(2,4-dioxo-thiazolidin-5-ylmethyl)-biphenyl-3-ylmethyl]-N-methyl-naphthalene-2-carboxamide], in experiment [2], the activation at 1 µM stood at 96.1%. In experiment [1], the activation at 1 µM is 15.1% and the concentration at half-maximal activity (AC50) is over 50000 nM.

In general, AC50 refers to the concentration at which the activity in the assay is half-maximal.
